Molecular target: T1, EGFR^WT kinase (Homo sapiens, UniProt P00533)
T1 construct: commercial wild-type EGFR kinase (Sigma Aldrich)
Experiment: HTRF KinEASE-TK kinase assay
Format: biochemical

T1 sequence (P00533 25-1210): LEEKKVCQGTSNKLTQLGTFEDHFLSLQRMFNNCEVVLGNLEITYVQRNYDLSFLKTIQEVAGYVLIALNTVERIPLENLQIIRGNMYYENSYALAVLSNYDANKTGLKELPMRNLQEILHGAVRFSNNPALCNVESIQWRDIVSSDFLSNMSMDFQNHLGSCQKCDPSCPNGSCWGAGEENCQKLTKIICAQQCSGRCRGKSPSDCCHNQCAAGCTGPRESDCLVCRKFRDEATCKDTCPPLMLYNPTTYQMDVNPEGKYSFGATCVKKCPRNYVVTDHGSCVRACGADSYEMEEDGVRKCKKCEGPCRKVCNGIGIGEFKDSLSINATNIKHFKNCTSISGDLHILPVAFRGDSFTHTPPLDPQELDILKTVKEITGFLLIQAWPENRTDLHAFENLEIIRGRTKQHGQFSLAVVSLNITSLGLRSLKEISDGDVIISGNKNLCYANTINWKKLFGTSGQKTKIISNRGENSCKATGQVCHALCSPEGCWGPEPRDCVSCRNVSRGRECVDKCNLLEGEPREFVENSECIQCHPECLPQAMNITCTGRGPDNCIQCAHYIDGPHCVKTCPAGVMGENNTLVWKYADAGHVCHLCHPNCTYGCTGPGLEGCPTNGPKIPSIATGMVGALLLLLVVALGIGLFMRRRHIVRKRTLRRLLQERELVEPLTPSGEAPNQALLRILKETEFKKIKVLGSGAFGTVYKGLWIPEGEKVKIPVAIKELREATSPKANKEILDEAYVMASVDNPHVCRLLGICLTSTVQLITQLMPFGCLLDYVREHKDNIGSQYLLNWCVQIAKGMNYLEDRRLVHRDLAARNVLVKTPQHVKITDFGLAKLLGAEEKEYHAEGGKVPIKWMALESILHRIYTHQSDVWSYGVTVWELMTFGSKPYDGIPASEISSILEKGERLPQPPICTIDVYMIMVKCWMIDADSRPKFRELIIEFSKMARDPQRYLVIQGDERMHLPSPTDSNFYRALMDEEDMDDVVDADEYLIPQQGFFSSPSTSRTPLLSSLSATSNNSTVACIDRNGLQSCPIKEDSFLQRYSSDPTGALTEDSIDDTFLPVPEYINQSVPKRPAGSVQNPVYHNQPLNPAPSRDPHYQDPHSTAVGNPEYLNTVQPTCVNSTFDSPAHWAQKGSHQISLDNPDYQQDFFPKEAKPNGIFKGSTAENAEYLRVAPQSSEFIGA

- IC50: 191 nM
SMILES: C=C(C)[C@H]1C=C2[C@H](C)CC[C@H](Cc3c(O)c(C=O)c4c(c3O)C(=O)CC(C)(C)O4)[C@@]2(C)CC1 [R14, Eucarbwenstols D]

— paper doi:10.1101/2025.02.22.639610v1, “Excavating Podocyte-Protective Targets of phloroglucinol-terpene hybrids Utilizing AI Models and Omics Analysis” (biorxiv, 2025)
